According to US9822138B2, “Antiviral beta-amino acid ester phosphodiamide compounds” (Merck Sharp & Dohme Corp., priority 2015, dated 2017):
Like-named read-outs stand apart in the source and are kept apart here.

Tests used:
HIV-1 (H9/IIIB strain) = experiment: microbe, parasite or virus in culture; type: cell-based; conditions: MT4-GFP cells infected with HIV-1 H9/IIIB, inhibition of reproductive ratio R0
Method: Assessing Antiviral Potency in a Multiple Round HIV-1 Infection Assay (Viking Assay)
The antiviral activity of the tenofovir prodrugs of the Examples herein was assessed in an assay that measures the rate of replication of HIV in cell culture, termed the Viking assay (Viral KINetics in Green cells) and performed as follows. HIV-1 replication was monitored using MT4-gag-GFP clone D3 (hereafter designated MT4-GFP), which are MT-4 cells modified to harbor a GFP reporter gene, the expression of which is dependent on the HIV-1 expressed proteins tat and rev. Productive infection of an MT4-GFP cell with HIV-1 results in GFP expression approximately 24 h post-infection. MT4-GFP cells were maintained at 37° C./5% CO2/90% relative humidity in RPMI 1640 supplemented with 10% fetal bovine serum, 100 U/ml penicillin/streptomycin, and 400 μg/ml G418 to maintain the reporter gene. For infections, MT4-GFP cells were placed in the same medium lacking G418 and infected overnight with HIV-1 (H9/IIIB strain) virus at an approximate multiplicity of infection of 0.01 in the same incubation conditions. Cells were then washed and re-suspended in either RPMI 1640 supplemented with 10% or 50% normal human serum (NHS) at 1.6×10^5 cells/mL (10% NHS or 50% NHS, respectively). Compound plates were prepared by dispensing compounds dissolved in DMSO into wells of 384 well poly-D-lysine-coated plates (0.2 μl/well) using an ECHO acoustic dispenser. Each compound was tested in a 10-point serial 3-fold dilution (typical final concentrations: 8.4 μM-0.42 nM). Controls included no inhibitor (DMSO only) and a combination of three antiviral agents (efavirenz, indinavir, an in-house integrase strand transfer inhibitor at final concentrations of 4 μM each). Cells were added ([…]) to compound plates and the infected cells were maintained at 37° C./5% CO2/90% relative humidity.
Infected cells were quantified at two time points, ˜48 h and ˜72 h post-infection, by counting the number of green cells in each well using an Acumen eX3 scanner. […] Inhibition of R0 is calculated for each well, and IC50s determined by non-linear 4-parameter curve fitting.

[1] = Prodrug stability assay in bio-relevant media (FaSSIF with pancreatin; GI tract stability); type: in vitro ADME; conditions: parent prodrug area at 5 h divided by area at 0 h; 37° C.; 0.5 mg/mL pancreatin in FaSSIF
Method: Prodrug Stability Assay in Bio-Relevant Media
The following assay was employed to evaluate the stability of the prodrugs in simulated gastrointestinal tract conditions. Preparation of fasted state simulated intestinal fluid (FaSSIF) using Phares SIF Powder was carried out according to protocols from Phare Drug Delivery AG (Baselland, Switzerland). For sample preparation, 10 μL stock solutions (10 mM) of prodrug substance in DMSO was added to 990 μL of 0.5 mg/mL Pancreatin solution (Fisher CAS#8049-47-6) in FaSSIF. Two samples were prepared for each compound at initial. If the sample was clear solution at the beginning, ran one sample directly as initial by HPLC; if the sample was not clear at starting, diluted the sample by 100% ACN. Put the other sample under 37° C. and observed the sample at 5 h time-point. At 5 h time point, if the sample was clear solution then performed HPLC analysis directly; if it was not clear solution, diluted the sample by 100% ACN and assayed by HPLC. All the samples were vortexed for 3 min and observed before injection. For the diluted samples, the area will be multiplied by a factor when data analysis. The analysis was carried out with an Agilent 1100 series HPLC with autosampler. The column was usually a Poroshell 120 EC-C18, 4.6×50 mm, 2.7 μm. The flow rate was 1.8 mL/min, and the injection volume was 5 or 10 μL. UV detection was in the range 210-400 nm. The mobile phase consisted of solvent A (water plus 10 mM tetrabutylammonium bromide) and solvent B (acetonitrile) with a gradient of 90% solvent A at 0 min changing to 95% solvent B over 6 min, maintained for 1.5 min, then reverting to 90% solvent A over 1.6 min. The area of the parent in prodrug at 5 h time point was divided by the area of the parent in prodrug at 0 h time point, to generate the % claimed parent ratio, which are summarized in Table 5 for GI Tract stability.

[2] = 10% normal human serum, read-out: Viking, IC50 (10% NHS)
[3] = 50% normal human serum, read-out: Viking, IC50 (50% NHS)
[4] = Human immunodeficiency virus 1, 10% normal human serum, read-out: Viking, IC50 (10% NHS)
[5] = Human immunodeficiency virus 1, 50% normal human serum, read-out: Viking, IC50 (50% NHS)
[6] = Human immunodeficiency virus 1, IIIB, 10% normal human serum, read-out: Viking, IC50 (10% NHS)
[7] = Human immunodeficiency virus 1, IIIB, 50% normal human serum, read-out: Viking, IC50 (50% NHS)

SMILES | IC50 (HIV-1 (H9/IIIB strain); [2]) [nM] | IC50 (HIV-1 (H9/IIIB strain); [3]) [nM] | GI Tract stability [1] [%] | IC50 (HIV-1 (H9/IIIB strain); [4]) [nM] | IC50 (HIV-1 (H9/IIIB strain); [5]) [nM] | IC50 (HIV-1 (H9/IIIB strain); [6]) [nM] | IC50 (HIV-1 (H9/IIIB strain); [7]) [nM]
CC(C)OC(=O)[C@@H](C)CNP(=O)(CO[C@H](C)Cn1cnc2c(N)ncnc21)N[C@@H](C)C(=O)OC1CCCC1 (single isomer, unassigned) [Example 11B] | 20.9 | 68.4 | 76.4 | – | – | – | –
CC(C)OC(=O)[C@@H](C)CNP(=O)(CO[C@H](C)Cn1cnc2c(N)ncnc21)N[C@H](C)C(=O)OC1CCCC1 (single isomer, unassigned) [Example 22B] | 83.8 | 291 | 99.2 | – | – | – | –
CC(C)OC(=O)C[C@H](C)NP(=O)(CO[C@H](C)Cn1cnc2c(N)ncnc21)N[C@H](C)C(=O)OC1CCC1 (single isomer, unassigned) [Example 19A] | 51.2 | 195 | 100 | – | – | – | –
CCCCOC(=O)[C@H](C)NP(=O)(CO[C@H](C)Cn1cnc2c(N)ncnc21)NC[C@H](C)C(=O)OC(C)C (single isomer, unassigned) [Example 15B] | 11.7 | 79.4 | 65.8 | – | – | – | –
CCCCCCCOC(=O)[C@H](C)NP(=O)(CO[C@H](C)Cn1cnc2c(N)ncnc21)NC[C@H](C)C(=O)OC(C)C (single isomer, unassigned) [Example 17A] | 6.5 | 43 | 30.5 | – | – | – | –
CC(C)OC(=O)C[C@H](C)NP(=O)(CO[C@H](C)Cn1cnc2c(N)ncnc21)N[C@@H](C)C(=O)OC(C)C (single isomer, unassigned) [Example 8A] | 26.5 | 38.2 | 89.5 | – | – | – | –
CC(C)OC(=O)[C@H](C)CNP(=O)(CO[C@H](C)Cn1cnc2c(N)ncnc21)N[C@@H](C)C(=O)OC(C)C (single isomer, unassigned) [Example 10A] | 10.6 | 97.2 | 54.8 | – | – | – | –
CCCCCOC(=O)C(C)(C)N[P@](=O)(CO[C@H](C)Cn1cnc2c(N)ncnc21)N[C@@H](CC(=O)OC(C)C)C(C)C (single isomer, unassigned) [Example 24A] | – | – | 76 | 0.8 | 4.4 | – | –
CC(C)OC(=O)[C@@H](C)CNP(=O)(CO[C@H](C)Cn1cnc2c(N)ncnc21)N[C@H](C)C(=O)OC1CCC1 (single isomer, unassigned) [Example 20B] | 112 | 432 | 99.3 | – | – | – | –
CC(C)OC(=O)C[C@H](N[P@@](=O)(CO[C@H](C)Cn1cnc2c(N)ncnc21)NC(C)(C)C(=O)OC(C)C)C(C)C (single isomer, unassigned) [Example 25A] | – | – | 99.0 | 4.7 | 12 | – | –
CC(C)COC(=O)[C@H](C)NP(=O)(CO[C@H](C)Cn1cnc2c(N)ncnc21)NC[C@H](C)C(=O)OC(C)C (single isomer, unassigned) [Example 14A] | – | – | 38.3 | – | – | 16.6 | 70.2
CC(C)OC(=O)C[C@@H](C)NP(=O)(CO[C@H](C)Cn1cnc2c(N)ncnc21)N[C@@H](C)C(=O)OC(C)C (single isomer, unassigned) [Example 9A] | 25.3 | 66.7 | 99.6 | – | – | – | –
CCCCCCOC(=O)C(C)(C)NP(=O)(CO[C@H](C)Cn1cnc2c(N)ncnc21)N[C@@H](CC(=O)OC(C)C)C(C)C (single isomer, unassigned) [Example 28B] | 2.1 | 5.7 | 83 | – | – | – | –
CCCCCOC(=O)[C@H](C)NP(=O)(CO[C@H](C)Cn1cnc2c(N)ncnc21)NC[C@H](C)C(=O)OC(C)C (single isomer, unassigned) [Example 16A] | – | – | 12.7 | – | – | 6.1 | 18.6
CC(C)OC(=O)[C@@H](C)CNP(=O)(CO[C@H](C)Cn1cnc2c(N)ncnc21)N[C@@H](C)C(=O)OC1CCCCC1 (single isomer, unassigned) [Example 13A] | 8.7 | 56.4 | 38.7 | – | – | – | –
CC(C)OC(=O)C[C@H](N[P@](=O)(CO[C@H](C)Cn1cnc2c(N)ncnc21)NC(C)(C)C(=O)OC(C)C)C(C)C [Example 25B] | – | – | 100 | 590 | > 2000 | – | –
CC(C)COC(=O)[C@H](C)NP(=O)(CO[C@H](C)Cn1cnc2c(N)ncnc21)NC[C@H](C)C(=O)OC(C)C (single isomer, unassigned) [Example 14B] | 15.7 | 51.6 | 60.6 | – | – | – | –
CC(C)OC(=O)C[C@@H](C)NP(=O)(CO[C@H](C)Cn1cnc2c(N)ncnc21)N[C@H](C)C(=O)OC1CCC1 (single isomer, unassigned) [Example 18A] | – | – | 99.2 | 65 | 134 | – | –
CC(C)OC(=O)CCNP(=O)(CO[C@H](C)Cn1cnc2c(N)ncnc21)N[C@@H](C)C(=O)OC(C)C (single isomer, unassigned) [Example 7A] | – | – | 98.7 | 26.4 | 44.1 | – | –
CCCCCOC(=O)C(C)(C)NP(=O)(CO[C@H](C)Cn1cnc2c(N)ncnc21)N[C@@H](C)CC(=O)OC(C)C (single isomer, unassigned) [Example 26B] | 1.5 | 6.8 | 96.9 | – | – | – | –
CCCCCOC(=O)[C@H](C)NP(=O)(CO[C@H](C)Cn1cnc2c(N)ncnc21)NC[C@H](C)C(=O)OC(C)C (single isomer, unassigned) [Example 16B] | 7.3 | 28.3 | 56.2 | – | – | – | –
CC(C)OC(=O)[C@@H](C)CNP(=O)(CO[C@H](C)Cn1cnc2c(N)ncnc21)N[C@@H](C)C(=O)OC1CCC1 (single isomer, unassigned) [Example 12B] | 20.9 | 63.2 | 37.7 | – | – | – | –
CC(C)OC(=O)CCNP(=O)(CO[C@H](C)Cn1cnc2c(N)ncnc21)N[C@H](C)C(=O)OC1CCC1 (single isomer, unassigned) [Example 23B] | 121 | 488 | 101 | – | – | – | –
CCCCCCCOC(=O)[C@H](C)NP(=O)(CO[C@H](C)Cn1cnc2c(N)ncnc21)NC[C@H](C)C(=O)OC(C)C (single isomer, unassigned) [Example 17B] | 2.2 | 12 | 0 | – | – | – | –
